Tested on: HEK293T cells
Test: cell viability (CellTiter 96 Aqueous One)
Assay type: cell-based
Settings: 24 h
Procedure: Fig. 4 CH004 arrests the cell cycle at the S phase. a CH004 reduces the cell viability of HEK293T and HepG2 cells. HEK293T or HepG2 cells were treated with indicated concentrations of CH004 for 24 h before the cell number was analyzed using the CellTiter96® Aqueous One Solution Cell Proliferation Assay (Promega, Materials and Methods). The means at each concentration of one representative experiment are shown as percentages of DMSO (control, 100%). Means ± SDs (n = 3). b Overexpression of hCBS or knock-down of hCBS counteracts the growth inhibition exerted by CH004 in HEK293T cells. Indicated HEK293T stable cell lines were treated with the CH004 or DMSO for 24 h. Then, the cell viability was quantified with the CellTiter 96® Aqueous One Solution Cell Proliferation Assay under the standard protocol (Promega). […] The efficacy for CBS overexpression and knock-down in HEK293T cells was determined by Western blotting using an anti-CBS antibody (3E1, 1:2000; Abnova). c CH004 induces cell death in HEK293T and HepG2 cells. […] HEK293T cells were incubated with indicated compounds for 12 h, and the DNA content was quantified with propidium iodide to analyze the cell cycle distribution by flow cytometry (e). The cell cycle distributions for HEK293T-shNT and HEK293T-shCBS cells were accordingly analyzed and are shown in f. […]

`Cn1nc(Cc2ccccc2)nc2c(=O)n(C)c(=O)nc1-2` [CH004, 3-benzyl-1,6-dimethylpyrimido[5,4-e][1,2,4]triazine-5,7(1H,6H)-dione] gave an IC50 of roughly 17 µM and an IC50 (Homo sapiens, HEK-293T) of 16.6 ± 5.3 µM.

— PMC6158189, “A pharmacological probe identifies cystathionine β-synthase as a new negative regulator for ferroptosis” (Cell Death & Disease, 2018)
